According to US11851381B2, “Application of farnesene in preparing plant-derived urease inhibitor” (priority 2022, dated 2023):

Experiments:
[1] = target: T1, Canavalia ensiformis urease (Canavalia ensiformis, UniProt P07374); assay type: biochemical; settings: incubated 20 min at 37° C., HEPES pH 7.5; unit inferred; read-out: median inhibitory concentration (IC50) for inhibiting the activity of Canavalia ensiformis urease
T1 construct: purchased Aladdin Company
Method: Acetohydroxamic acid is weighed, and mixed with 20 mM of HEPES buffer solution (with pH of 7.5) to prepare an acetohydroxamic acid solution of 0.1 μM, 0.5 μM, 1 μM, 3 μM, 5 μM, 10 μM, 20 μM, 40 μM, 60 μM and 80 μM, and the solution is cold stored in a brown bottle in a refrigerator at 4° C. for standby use;
Canavalia ensiformis urease is weighed, and dissolved in 20 mM of HEPES buffer solution (with pH of 7.5) to prepare the Canavalia ensiformis urease solution with a concentration of 10 U/mL, and the prepared solution is cold stored in the refrigerator at 4° C. for standby use. […]
A. 50 μL of the above prepared farnesene solution with different concentrations is collected, added with 100 μL of Canavalia ensiformis urease solution respectively, and uniformly mixed to obtain mixed solutions, and the mixed solutions are incubated for 20 min at 37° C.; 100 μL of urea solution is added for light avoidance reaction for 20 min at a room temperature; the Berthelot developing solution A is added and uniformly mixed, and the Berthelot developing solution B is added for development for 10 min to obtain an incubation solution; and 250 μL of incubation solution is absorbed onto a 96-well plate, an OD absolute value at 595 nm is determined by a microplate reader, and three times of test are carried in parallel for each concentration. […]

soil urease = assay: Inhibition of soil urease activity in incubated brown soil; assay type: biochemical
Method: (§1) (1) Pre-culture of soil: air-dried soil (brown soil) is filtered by a 2 mm sieve and then placed in a culture dish, distilled water accounting for 15% of the weight of the dried soil is added, after the dried soil is uniformly and thoroughly immersed with water, the soil is pre-cultured for 2 weeks in a constant temperature incubator at a constant temperature of 25° C. to restore the biological activity of the soil, and ventilation and constant moisture are kept in the pre-culture period.
(2) The pre-cultured soil is weighed, and added with DMSO solutions of farnesene and acetohydroxamic acid respectively, the concentrations of the farnesene and acetohydroxamic acid are 50 mg/kg (calculated by the dried soil) respectively, and a farnesene-soil mixture and an acetohydroxamic acid-soil mixture are obtained. 5 g of farnesece-soil mixture and 5 g of acetohydroxamic acid-soil mixture are weighed respectively and placed into glass test tubes (length 15 cm×diameter 15 mm), then 5 mL of distilled water is added respectively into the test tubes to make the soil located below a liquid surface, the mixtures in the test tubes are shaken by a vortex shaker and uniformly mixed; and at the same time, the pre-cultured soil without the inhibitor is used as control treatment (CK) and cultured in the constant temperature incubator at a constant temperature of 25° C., and sampling is carried out respectively on the 1st day, the 7th day, 14th day and 28th day after the culture (water is supplemented every day according to a weight method so as to keep a total weight of the test tube constant) for determination of urease activity. […]

[2] = system: soil urease-generating bacteria; assay: Inhibition of soil urease-generating bacteria (bacterial ureC gene copy number by quantitative PCR); settings: urea 200 mg N kg^-1 dry soil, farnesene 0.5%, 2% of pure nitrogen
Method: as §1, with “at” for “at a constant temperature of”, “period, thereby obtaining the pre-cultured soil.” for “period.”
(2) The pre-cultured soil is weighed; urea is added according to a concentration of 200 mg N kg^−1 of dry soil; the farnesene is added according to concentrations of pure nitrogen of 0 (U), 0.5% (U+0.5%), 1% (U+1%) and 2% (U+2%); and at the same time, the pre-cultured soil without urea and farnescene is used as control treatment, and 5 treatments are carried out and repeated for 4 times. In each treatment, the required urea and farnesene are dissolved in a certain amount of deionized water according to a required amount, then the solution is uniformly mixed with the pre-cultured soil that is equivalent to 50 g of air-dried soil by a vacuum method, the water content of the soil is enabled to reach 60% of the field water holding capacity (WHC), and finally the solution is placed in a 150 mL centrifugal pipe with a cover. […]

corns = assay: Pot experiment: combined application of farnesene and urea on growth of corns; assay type: in vivo, corn; settings: potted corns; for Increase of dry weight / Yield increase: versus control without farnesene
Text: Soil required for pot experiment is brown soil collected from Shenyang. 13 g of nitrogen phosphorus potassium fertilizer is used as base fertilizer to be applied in all layers according to a ratio of 26-10-12; and the fertilizer with farnescene and the fertilizer without farnescene are used as control, and the application amount is 0.5%, 1% and 5% of a pure nitrogen content in the fertilizer. Nitrogen fertilizer for test is urea, phosphorus fertilizer is calcium superphosphate, and potassium fertilizer is potassium sulfate. Each treatment is repeated for 5 times. The pretreated soil (filtered by a 5 mm sieve to remove stone pieces, roots, etc.) that is equivalent to 16 kg of air-dried oil is laid on square thick plastic paper with an edge length of 2 m, then the required fertilizer and inhibitor (if necessary) that are uniformly mixed in advance are applied uniformly to the soil, the paper is folded for multiple times by a diagonal folding method, in this period, it is necessary to lay the soil on the paper and then fold the paper, finally the soil is sufficiently and uniformly mixed with the fertilizer and inhibitor, the obtained mixture is transferred into a plastic pot (with a diameter of 28 cm and a height of 34 cm), and finally irrigation is carried out to make the water content of the soil reach 60% of the maximal field water holding capacity. Finally, a height about 5 cm is reserved between the soil surface and the top end of the pot. Three corn seeds are sowed in each pot in a sowing depth of 5 cm, and after the emergence (about 15 days), thinning is carried out to make each pot have one corn. Finally, all potted corns are carried onto a four-wheeled platform lorry and finally transferred into a net house. When in rainy days, the potted corns are transferred into a shed. The corns are watered manually every day in a growth period so as to maintain the soil moisture. The planting density is about 4000 corns per Mu, and a dry weight and yield of the corn are determined in autumn.

[3] = farnesene 0.5% of pure nitrogen content in the fertilizer
[4] = farnesene 0.5% of pure nitrogen content
[5] = farnesene 1% of pure nitrogen content in the fertilizer
[6] = farnesene 1% of pure nitrogen content
[7] = farnesene 5% of pure nitrogen content in the fertilizer
[8] = farnesene 5% of pure nitrogen content

T1 sequence (P07374 whole entry, looked up): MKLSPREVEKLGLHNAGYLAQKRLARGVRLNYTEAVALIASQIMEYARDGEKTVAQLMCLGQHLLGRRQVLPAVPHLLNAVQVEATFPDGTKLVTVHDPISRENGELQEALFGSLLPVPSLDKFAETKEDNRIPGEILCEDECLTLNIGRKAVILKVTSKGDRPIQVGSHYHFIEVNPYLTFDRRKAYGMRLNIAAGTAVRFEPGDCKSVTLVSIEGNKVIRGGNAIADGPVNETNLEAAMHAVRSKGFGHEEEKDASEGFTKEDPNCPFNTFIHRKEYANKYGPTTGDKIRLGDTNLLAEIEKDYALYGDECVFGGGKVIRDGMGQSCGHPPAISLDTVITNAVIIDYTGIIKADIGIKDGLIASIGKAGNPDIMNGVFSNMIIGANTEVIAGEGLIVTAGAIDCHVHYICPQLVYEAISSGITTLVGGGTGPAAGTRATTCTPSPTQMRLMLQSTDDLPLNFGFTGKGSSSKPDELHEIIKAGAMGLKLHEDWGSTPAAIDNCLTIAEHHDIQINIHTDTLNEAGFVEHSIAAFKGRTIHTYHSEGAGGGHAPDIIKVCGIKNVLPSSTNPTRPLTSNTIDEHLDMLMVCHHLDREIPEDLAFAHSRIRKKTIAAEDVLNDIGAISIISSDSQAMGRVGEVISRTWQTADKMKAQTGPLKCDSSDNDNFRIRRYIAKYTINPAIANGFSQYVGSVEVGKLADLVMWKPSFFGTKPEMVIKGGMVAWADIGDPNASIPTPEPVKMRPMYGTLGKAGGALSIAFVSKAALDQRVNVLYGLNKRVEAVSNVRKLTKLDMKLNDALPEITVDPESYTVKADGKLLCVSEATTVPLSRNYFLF

farnesene
IC50 [1]: 10.3 ± 0.25 µM | duration of the inhibition effect on soil urease (soil urease; 50 mg/kg dried soil, brown soil, 25° C.): 14 days | inhibition of the activity of soil urease (soil urease; 50 mg/kg dried soil, brown soil, 25° C., sampled day 1, 7, 14, 28): can effectively inhibit the activity of soil urease | inhibition effect on soil urease compared with acetohydroxamic acid (soil urease; both at 50 mg/kg dried soil): equivalent to that of the commercial inhibitor acetohydroxamic acid | duration of the inhibition effect on urease-generating bacteria [2]: 14 days | inhibition of the proliferation of urease-generating bacteria (copy number of bacterial ureC genes) ([2]; 25° C.): can effectively inhibit the proliferation of the urease-generating bacteria | Dry weight (corns; [3]): 16006.3 kg ha^−1 | Yield (corns; [3]): 8004.2 kg ha^−1 | Increase of dry weight (corns; [4]): 4.1% | Yield increase (corns; [4]): 4.5% | Dry weight (corns; [5]): 16922.8 kg ha^−1 | Yield (corns; [5]): 8521.3 kg ha^−1 | Increase of dry weight (corns; [6]): 8.6% | Yield increase (corns; [6]): 10.1% | Dry weight (corns; [7]): 17371.5 kg ha^−1 | Yield (corns; [7]): 8714.3 kg ha^−1 | Increase of dry weight (corns; [8]): 10.2% | Yield increase (corns; [8]): 12.2%
